{"source": "paper PMC12518639", "about": "“Apomorphine is a novel necroptosis inhibitor targeting mixed lineage kinase domain-like protein oligomerization” (Cell Death Discovery, 2025)", "key": {"[1]": {"system": "p-MLKL and p-RIP1", "assay": "Western blot of cytosol and membrane fractions", "format": "cell-based, human", "details": "THP-1, TBZ, 20 μM", "method": "The cells were harvested and lysed in 1× RIPA buffer (R4100-010, GenDEPOT, Katy, TX, USA) containing protease (P3100-001, GenDEPOT) and phosphatase (1862495, Thermo Fisher Scientific) inhibitors. WCLs were then centrifuged at 20,000×g for 30 min at 4 °C and subjected to non-reducing or reducing 8–12% SDS-PAGE gel electrophoresis. The membrane was blocked with 5% non-fat milk in TBS and probed with antibodies. Antibodies to hMLKL (14993S), mMLKL (97705S), phospho-hMLKL (Ser358) (91689S), phospho-mMLKL (Ser345) (37333S), phospho-hRIP1 (Ser166) (65746S), mRIP1 (3493S), phospho-mRIP1 (Ser321) (38662S), phospho-hRIP3 (Ser227) (93654), mRIP3 (95702S), p-mRIP3 (Thr231/Ser232) (91702S), and LDH (2012S) (Cell Signaling Technology, Danvers, MA, USA), and GAPDH (LF-PA0018, Abfrontier, S. Korea), hRIP1 (ab72139, Abcam, Cambridge, UK), hRIP3 (sc-135170, Santa Cruz Biotechnology, Dallas, TX, USA), HMGB1 (ab78923, Abcam), and LAMP1 (ab24170, Abcam) antibodies were used.\nCell membrane fractionation was performed to determine whether MLKL oligomers were retained in the cell membrane fraction. Briefly, THP-1 cells were harvested and resuspended in 20 mM TBS (pH 7.4) containing 10 mM KCl, 1 mM MgCl2, protease inhibitor (P3100-001, GenDEPOT), and phosphatase inhibitor (1862495, Thermo Fisher Scientific). The cell suspension was passed through a 22-gauge needle and centrifuged at 20,000×g for 15 min and stored as the cytoplasmic fraction. The pellet was resuspended in lysis buffer and stored as the crude membrane fraction.\nFig. S1 Assessment of p-MLKL inhibition to identify MLKL-targeting molecules. (A) Quantification graph corresponding to Fig. 1C. THP-1 cells were treated with TBZ in the presence of secondarily selected compounds (S1–S72, 20 μM). Whole-cell lysates (WCLs) were collected and subjected to Western blot analysis under reducing conditions using antibodies against p-MLKL, MLKL, and GAPDH. The p-MLKL/MLKL ratio was quantified and compared to that of TBZ-treated cells. Data represent the mean of three independent experiments. (B) Quantification graph corresponding to Fig. 1D. THP-1 cells were treated with TBZ in the presence of third-round selected compounds (S1–S62, 20 μM). Cytosolic and membrane fractions were collected and analyzed by Western blot under reducing conditions. The levels of p-MLKL and p-RIP1 were normalized to LDH (cytosolic marker) and LAMP1 (membrane marker), respectively. Quantified ratios were compared to those of TBZ-treated cells (n = 3 independent experiments)."}, "[2]": {"system": "THP-1 cells", "assay": "PI uptake assay after TBZ treatment", "format": "cell-based", "details": "Homo sapiens; THP-1, TBZ, 8 h", "method": "To identify potential inhibitors of the necroptosis pathway targeting MLKL or the process of p-MLKL pore formation on the membrane, we screened a library of 2150 compounds, including FDA-approved drugs and those in phase 1–3 clinical trials, using THP-1-HMGB1-Lucia™ cells expressing the HMGB1-luciferase fusion protein. The cells were treated with a necroptosis-inducing mixture containing TNF-α, BV6, and Z-VAD-FMK (TBZ) in addition to the compound library (Fig. 1A). The supernatants were harvested to measure luciferase activities for necroptosis. The luciferase activities of cell supernatants treated with TBZ alone were considered as the maximum release (100%) of HMGB1-luciferase. NEC-1, a known RIP1 inhibitor used in both humans and mice, was used as a positive control. An initial screening was performed to identify compounds that reduced luciferase activity to within 20% of the TBZ-treated supernatant, and 72 compounds (S1–S72) were selected (Table S1). Among these compounds were four known necroptosis inhibitors of pazopanib (S10), bardoxolone (S16), ponatinib (S17), and dabrafenib (S31), indicating the reliability of this screening assay. […]\nPI uptake assays were performed in triplicate to evaluate pore formation on the plasma membrane. […] Fluorescence was recorded using a Varioskan Flash 3001 plate reader (Thermo Fisher Scientific, Waltham, MA, USA)."}}, "note": "pIC50: −log10 of the molar value.", "data": [{"smiles": "CN1CCc2cccc3c2[C@@H]1Cc1ccc(O)c(O)c1-3", "note": "[S62, (6aS)-6-methyl-5,6,6a,7-tetrahydro-4H-dibenzo[de,g]quinoline-10,11-diol]", "values": [{"measurement": "p-MLKL levels in the cytosolic fraction", "setting": "[1]", "result": "little or moderate inhibition"}, {"measurement": "p-MLKL levels in the membrane fraction", "setting": "[1]", "result": "significantly inhibited"}, {"measurement": "pIC50", "setting": "[2]", "result": 5.24}]}]}
